Tested on: eIF2-GTP-Met-tRNAi ternary complex
Assay: Ternary complex assay (dual luciferase, firefly/renilla ratio) in stable KLN-tTA/pBISA-DL(ATF-4) cells; HTS and hit confirmation
Type: cell-based, mouse
Design: Activity 10 uM / Activity 2.5 uM / Activity 5 uM: unit not given here
Conditions: confirmed hits of the screen (Table 5); for Activity 2.5 uM: compound at 2.5 uM; for Activity 10 uM: compound at 10 uM; for Activity 5 uM: compound at 5 uM

CC(=O)C1C(=O)C(=O)N(c2ccc([N+](=O)[O-])cc2)C1=O.[Na+] (stereo not shown) [Compound 657424]
Activity 2.5 uM: 1.17 | Activity 10 uM: 3.36

C(=N\Nc1ccc2ccccc2n1)/c1ccccn1 [Compound 527347]
Activity 2.5 uM: 2.551 | Activity 10 uM: 5.591

[Cl][Hg][Cl] [Compound 353255]
Activity 2.5 uM: 3.3

Cc1nc2ccc(Br)cc2c(=O)n1-c1ccc(NC2OC(CO)C(O)C(O)C2O)cc1 (stereo not shown) [Compound 665512]
Activity 2.5 uM: 0.47 | Activity 10 uM: 15.46

CCC(=O)Oc1c(Br)cc(C=O)cc1OC [Compound 101539]
Activity 5 uM: 14.033 | Activity 10 uM: 6.8175

COc1ccc([N+](=O)[O-])c(C(OC(C)=O)OC(C)=O)c1OC(C)=O [Compound 95832]
Activity 2.5 uM: 0.46 | Activity 10 uM: 3.2

NS(=O)(=O)c1ccc(NC(=S)Nc2ccc(S(=O)(=O)Nc3nccs3)cc2)cc1 [Compound 403440]
Activity 2.5 uM: 1.41 | Activity 10 uM: 3.83

CC[N+](CC)=c1ccc2nc3c(cc(N)c4ccccc43)oc-2c1.[Cl-] [Compound 146184]
Activity 2.5 uM: 3.13

CCN(CC)CCCC(C)n1c(SC)nc2cc(Cl)ccc21 (stereo not shown) [Compound 13268]
Activity 2.5 uM: 1.46 | Activity 10 uM: 3.18

CC(=O)Oc1cccc2cc3cc(C)cc(OC(C)=O)c3c(OC(C)=O)c12 [Compound 112921]
Activity 2.5 uM: 97.42 | Activity 10 uM: 242.82

CCCCCCN(CCCCCC)C(=S)N/N=C(\C)c1ccccn1 [Compound 647131]
Activity 2.5 uM: 1.96 | Activity 10 uM: 17.42

O=C(OCCc1ccccc1)c1ccccc1O [Compound 72035]
Activity 5 uM: 3.275 | Activity 10 uM: 3.8265

Cc1ccc(N=NC2C(=O)c3ccccc3C2=O)cc1 [Compound 106656]
Activity 2.5 uM: 1.89 | Activity 10 uM: 3.26

O=C(/C=C/c1ccccc1)OC1CCCCC1 [Compound 71968]
Activity 5 uM: 2.615 | Activity 10 uM: 3.5615

CCCCCCCCCCCCCCCC[N+](C)(C)CCN=[N+]=[N-].O=S(=O)([O-])C(F)(F)F [Compound 297154]
Activity 2.5 uM: 1.24 | Activity 10 uM: 5.62

F[B-](F)(F)F.c1ccc([P+](c2ccccc2)(c2ccccc2)c2ccccc2)cc1 [Compound 407396]
Activity 2.5 uM: 1.72 | Activity 10 uM: 4.74

Cl.NC(N)=N/N=C/N/N=C/c1ccccc1O [Compound 75971]
Activity 5 uM: 3.111 | Activity 10 uM: 3.3355

O=S(=O)(Cc1ccccc1)CC(Br)CBr (stereo not shown) [Compound 229344]
Activity 2.5 uM: 1.28 | Activity 10 uM: 4.4

CCOC(=O)C(C(=O)OCC)c1ccc([N+](=O)[O-])o1 [Compound 643139]
Activity 10 uM: 7.511

O=C(OCC1OC(n2cc[n+]([O-])nc2=O)C(OC(=O)c2ccccc2)C1OC(=O)c1ccccc1)c1ccccc1 (stereo not shown) [Compound 276293]
Activity 2.5 uM: 20.35

CC(C)c1ccc(/C=C2\C=Cc3ccccc32)cc1 [Compound 120440]
Activity 5 uM: 2.3 | Activity 10 uM: 3.8

[Br][Sn]([Br])([CH2][Sn]([Br])([c]1ccccc1)[c]1ccccc1)[c]1ccccc1 [Compound 356111]
Activity 5 uM: 4.4 | Activity 10 uM: 3.2

CCCCN=C(C)CC(=O)CC(=O)c1ccccc1 [Compound 406018]
Activity 2.5 uM: 1.51 | Activity 10 uM: 4.09

C=C1N(c2cc3ccccc3o2)C(=O)OC12CCCCC2 [Compound 162375]
Activity 2.5 uM: 1.7 | Activity 10 uM: 3.07

c1ccc(-c2ccc3c4ccccc4ccn23)cc1 [Compound 131464]
Activity 2.5 uM: 3.63 | Activity 10 uM: 3.99

N=C(N)c1cn(C2OC(CO)C(O)C2O)c2ncnc(N)c12 (stereo not shown) [Compound 131663]
Activity 2.5 uM: 7 | Activity 10 uM: 8.18

Cc1c2c(c(C)c3c1C(=O)c1cc4c(cc1C3=O)OCO4)OC(C)(C)O2 [Compound 604868]
Activity 2.5 uM: 0.86 | Activity 10 uM: 5.36

CC(=O)N(C)c1ccc(/C=C2\C=Cc3ccccc32)cc1 [Compound 103749]
Activity 2.5 uM: 2.76 | Activity 10 uM: 5.25

COc1ccc2c(c1)c1c3c(ccc4ncn2c43)N(CCO)CCN=1 [Compound 658358]
Activity 2.5 uM: 0.4 | Activity 10 uM: 20.35

CC1=C/C(=C\C=C2/N(C)c3c(C)cccc3C2(C)C)C(=O)c2ncccc21 [Compound 91816]
Activity 2.5 uM: 17.64 | Activity 10 uM: 29.75

CCN1/C(=C/c2cc(C)nc(-c3ccccc3)[n+]2C)C=Cc2ccccc21.[Cl-] [Compound 43683]
Activity 2.5 uM: 3.73 | Activity 10 uM: 5.26

S=C(N/N=C/c1ccccn1)N1CC2CCC(CC2)C1 [Compound 667885]
Activity 2.5 uM: 8.61 | Activity 10 uM: 15.62

CCc1ccc(NC(=O)Nc2ccc(Cl)c(Cl)c2)cc1 [Compound 204750]
Activity 2.5 uM: 3.53 | Activity 10 uM: 24.26

COc1ccc2nc3cccc([N+](=O)[O-])c3c(NCCCO)c2c1 [Compound 673797]
Activity 2.5 uM: 2.54 | Activity 10 uM: 4.7

O=C1c2ccccc2-c2nc3cc4ccccc4cc3nc21 [Compound 163547]
Activity 2.5 uM: 3.27 | Activity 10 uM: 4.38

[Cl][Hg][Cl].c1cnccn1 [Compound 65429]
Activity 2.5 uM: 3.49

Br.O=C(/C(=C\c1ccccc1)CN1CCOCC1)c1ccc(Br)cc1 [Compound 150311]
Activity 5 uM: 36.67 | Activity 10 uM: 39.7

c1csc(-c2[nH]nc3c2CCc2ccccc2-3)c1 [Compound 370463]
Activity 2.5 uM: 4.76 | Activity 10 uM: 5.98

C(=P(c1ccccc1)(c1ccccc1)c1ccccc1)[P+](c1ccccc1)(c1ccccc1)c1ccccc1.[Br-].[Br-].[Cu+] [Compound 203423]
Activity 2.5 uM: 7.7 | Activity 10 uM: 3.09

CN(C)c1ccc(N=Nc2cccc(Cl)c2)cc1 [Compound 204515]
Activity 2.5 uM: 2.84 | Activity 10 uM: 5.31

CO[C@H]1/C=C/O[C@@]2(C)Oc3c(C)c(O)c4c(O)c(c(/C=N/Nc5ccc([N+](=O)[O-])cc5[N+](=O)[O-])c(O)c4c3C2=O)NC(=O)/C(C)=C\C=C\[C@H](C)[C@H](O)[C@@H](C)[C@@H](O)[C@@H](C)[C@H](OC(C)=O)[C@@H]1C [Compound 144126]
Activity 5 uM: 1.3 | Activity 10 uM: 7.3

COc1ccc(/C=C/c2ccc3ccccc3n2)cc1O.Cl [Compound 59070]
Activity 5 uM: 6.227 | Activity 10 uM: 7.423

CN(CCCl)c1ccc(C2N(Cc3ccccc3)c3ccccc3N2Cc2ccccc2)cc1 [Compound 96375]
Activity 5 uM: 2 | Activity 10 uM: 5.9

C/C(=N\NC(=S)N1CCSCC1)c1ccccn1 [Compound 332543]
Activity 5 uM: 4.083 | Activity 10 uM: 5.182

[Cl][Ni][Cl].c1ccc(P(CCP(CCP(c2ccccc2)c2ccccc2)CCP(c2ccccc2)c2ccccc2)c2ccccc2)cc1 [Compound 633334]
Activity 2.5 uM: 4.12 | Activity 10 uM: 28.14

CSc1ccc(NC(=O)c2ccc(Cl)cc2Cl)cc1 [Compound 204668]
Activity 5 uM: 5.386 | Activity 10 uM: 4.923

Cc1cc(/C=C/C2CCC3CC(C)CCC3N2CCO)c(C)n1-c1ccccc1 (stereo not shown) [Compound 14238]
Activity 2.5 uM: 1.37 | Activity 10 uM: 3.02

CC(C)(C)c1cc(C(O)(C(F)(F)F)C(F)(F)F)c(Cl)c(C(O)(C(F)(F)F)C(F)(F)F)c1 [Compound 361407]
Activity 2.5 uM: 0.62 | Activity 10 uM: 3.7

Cc1cccc(/C=N/Nc2ccc3ccccc3n2)n1 [Compound 332423]
Activity 5 uM: 4.287 | Activity 10 uM: 5.4265

O=[N+]([O-])c1cccnc1S(=O)(=O)c1ccccn1 [Compound 327414]
Activity 5 uM: 3.793 | Activity 10 uM: 6.977

OC(Br)C1C(c2ccccc2)N1C1CCCCC1 (stereo not shown) [Compound 150279]
Activity 2.5 uM: 0.62 | Activity 10 uM: 3.9

COc1ccc(NC(=S)Nc2ccccc2S)cc1 [Compound 201570]
Activity 2.5 uM: 2.16 | Activity 10 uM: 3.02

CC(=Nc1ccc(Cl)cc1N)c1c(O)cc(C)oc1=O [Compound 369331]
Activity 5 uM: 2.533 | Activity 10 uM: 2.7605

Cc1cccnc1.Cc1cccnc1.Cc1cccnc1.Cc1cccnc1.[Cl-].[Cl][Rh-][Cl] [Compound 165688]
Activity 5 uM: 17.91 | Activity 10 uM: 14.6965

CN1/C(=C/C=C/C=C/C2=[N+](C)c3ccccc3C2(C)C)C(C)(C)c2ccccc21.[I-] [Compound 340302]
Activity 2.5 uM: 3.29 | Activity 10 uM: 4.54

Cc1cc(N(C)C)cc(C)c1C(=Nc1ccc(N=C(NO)c2c(C)cc(N(C)C)cc2C)cc1)NO.Cl [Compound 109535]
Activity 5 uM: 3.9 | Activity 10 uM: 6.3

S=c1nccc[nH]1.[Pt] [Compound 321198]
Activity 5 uM: 8.313 | Activity 10 uM: 9.062

CCCCCCCCCCCCCCCCCC[n+]1ccc(C(C)CC)cc1.[Cl-] (stereo not shown) [Compound 19763]
Activity 2.5 uM: 4.63 | Activity 10 uM: 13.29

O=C(CC(c1cccnc1)C(C(=O)c1ccc(Cl)cc1)C(CC(=O)c1ccc(Cl)cc1)c1cccnc1)c1ccc(Cl)cc1 (stereo not shown) [Compound 339119]
Activity 2.5 uM: 1.01 | Activity 10 uM: 4.42

Cc1cn(C2OC(CO[Si](C)(C)C(C)(C)C)C(N(C)O[Si](C)(C)C(C)(C)C)C2[Se]c2ccccc2)c(=O)[nH]c1=O (stereo not shown) [Compound 674469]
Activity 2.5 uM: 1.37 | Activity 10 uM: 23.82

N#Cc1c(F)c(F)c(Oc2c(F)c(F)c(F)c(F)c2F)c(F)c1Oc1c(F)c(F)c(F)c(F)c1F [Compound 168745]
Activity 2.5 uM: 0.39 | Activity 10 uM: 36.37

Cc1cc(C)n(C(=C(C(Cl)=C(Cl)Cl)[N+](=O)[O-])n2nc(C)cc2C)n1 [Compound 678036]
Activity 2.5 uM: 0.85 | Activity 10 uM: 12.77

F[C-](C(F)(F)F)C(F)(F)F.F[P-](F)(F)(F)(F)F.[CH]1[CH][CH][CH][CH]1.[Co+2].c1ccc(P(CCP(c2ccccc2)c2ccccc2)c2ccccc2)cc1 [Compound 634014]
Activity 2.5 uM: 11.17 | Activity 10 uM: 12.92

— patent US9932300B2, “N,N′-diarylurea compounds and N,N′-diarylthiourea compounds as inhibitors of translation initiation” (President and Fellows of Harvard College, priority 2009, dated 2018)
